The record followed here is the METLIN SMRT retention time set (Domingo-Almenara et al. 2019).

Each structure is given as a SMILES string.

The nature of this data set: gradient 5% acetonitrile 3 min, to 50% in 2 min, to 85% in 15 min, held 3 min, 100 µL/min. Conditions: column: Zorbax Extend-C18 2.1 x 50 mm; eluents: water / acetonitrile, 0.1% formic acid. A digest of the protocol:
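Pure standards were analyzed in mixtures of ~100 molecules using HPLC coupled to a quadrupole time-of-flight mass spectrometer, in both positive and negative ionization mode. Separation used a Zorbax Extend-C18 column (2.1 × 50 mm, 1.8 μm) at 100 μL/min, with water and acetonitrile each containing 0.1% formic acid. Dead and dwell volumes were 40 μL and 900 μL, and data were collected over 3 months. Retention time was read from computationally picked adduct peaks, each inspected manually.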
`CCOC(=O)c1c(CN2CCOCC2)n(C)c2cc(-c3cccnc3)c(O)cc12` yielded an RP-LC retention time of 535 s.
The same measure for `Cc1cc(CN2CCC(CNC(=O)NCc3cccs3)CC2)c(C)o1`: 578 s.
Compound `Cc1ccc(Cn2c(=O)n(CCNC(=O)C(C)C)c3ncccc32)cc1` gave an RP-LC retention time of 769 s.
The same measure for `CCc1ccc(NC(=O)N2CCC(N3CCN(Cc4ccc(F)cc4)C(=O)C3=O)CC2)cc1`: 769 s; for `CC(=O)Nc1cccc(N2CC(C(=O)Nc3ccc(C(F)(F)F)cc3)CC2=O)c1` (centres undefined): 770 s.
On to `COc1ccc(-c2noc(Cn3ccn(-c4ccccc4)c(=O)c3=O)n2)cc1`, for which the RP-LC retention time is 794 s.
`CCc1nnc([C@@H]2CC(F)(F)CN2C(=O)CCn2nc(C)cc2C)o1` displayed an RP-LC retention time of 666 s.
`CCN1C(=O)c2cccnc2Sc2cc(CNC(=O)c3ccc(F)cc3)ccc21`: the RP-LC retention time stood at 765 s.
The figure for `CCOc1ccccc1-c1noc(CN2N=NC3C(=O)N(c4cc(OC)cc(OC)c4)C(=O)C32)n1` (centres undefined) is 962 s; for `CCOc1cc(=O)n2c(c1C(=O)N1CCC3(CC1)OCCO3)CCCCC2` it is 639 s.
The figure for `O=C(C1CCCN(c2ncnc3c2nc2n3CCCCC2)C1)N1CCN(c2ccccn2)CC1` (centres undefined) is 592 s; for `COc1cc(NC(=O)C2=Cc3cc(Br)ccc3OC2)cc(OC)c1OC` it is 997 s; for `Cc1ccccc1Cn1c(CN2CCC(C(=O)NC3CCCCCCC3)CC2)cc2ccccc21` it is 934 s.
The figure for `CC1CN(C(=O)Cn2cc(SCC(=O)N3CCCCC3)c3ccccc32)CC(C)O1` (centres undefined) is 783 s; for `O=C(NCc1csc(-c2ccccc2)n1)C1CCN(S(=O)(=O)c2ccc3[nH]c(=O)oc3c2)CC1` it is 758 s; for `Cc1cc2cc(CNC(=O)C(=O)c3c[nH]c4ccccc34)ccc2[nH]1` it is 878 s.
The compound `Cc1ccc(Cn2c(=O)c(N3CCN(C(=O)C4CCCO4)CC3)nc3cccnc32)cc1` (centres undefined) returned an RP-LC retention time of 998 s.
`COc1ccc(NC(=O)C2CCCN(c3ncnc4c3nc3n4CCCCC3)C2)cc1` (centres undefined) came in with an RP-LC retention time of 753 s.
The compound `O=C(c1ccco1)N1CCC(n2c(C3CCCC3)nc3cccnc32)C1` (centres undefined) gave an RP-LC retention time of 625 s.
The figure for `COCC(=O)Nc1ccc(SCc2nnc(-c3ccc4c(c3)OCO4)o2)cc1` is 789 s; for `CCc1cccc(NC(=O)N2CCC(n3cnnc3C)CC2)c1` it is 650 s; for `NC(=O)c1cc[nH]c1C1CCCN(C(=O)c2cscn2)C1` (centres undefined) it is 579 s.
The same measure for `CN1C(=O)c2ccccc2Oc2ccc(C(=O)N3CCCC3)cc21`: 719 s.
`Cc1cc(OCC(=O)Nc2nc(-c3ccccc3)cs2)ccc1Cl` displayed an RP-LC retention time of 1180 s.
The same measure for `Cc1nc2cc(N3CCCC(C(=O)NCCN4CCCCCC4)C3)cnc2nc1C` (centres undefined): 592 s.
`O=C(NCc1cccnc1)C1(c2ccccc2)CCOCC1`: the RP-LC retention time came to 540 s.
On to `C=CCc1cc(OC)ccc1OCC(O)CN1CCN(c2ccc(OC)cc2)CC1` (centres undefined), for which the RP-LC retention time turned out to be 597 s.
As for `O=C(c1cccc(-n2cnnn2)c1)N1CCN(Cc2nc3ccccc3[nH]2)CC1`, the RP-LC retention time was determined as 543 s.
In the case of `CC(C)(C)c1ccc(S(=O)(=O)N2CCCC2c2nc(-c3ccc(F)cc3)no2)cc1` (centres undefined), the RP-LC retention time is 1310 s.
In the case of `O=C(CCc1c(-c2ccc(Br)cc2)nc2ccccn12)NCCC1=CCCCC1`, the RP-LC retention time is 753 s.
`Cn1c(=O)n(CC(=O)N2CCCC2)c(=O)c2cnc(-c3ccc(Cl)cc3)nc21` returned an RP-LC retention time of 924 s.
As to `Cc1noc(C)c1CNC(=O)c1cc(F)ccc1Cl`, the RP-LC retention time worked out at 726 s.
The same measure for `O=C1CC(c2noc(-c3ccccc3F)n2)CN1c1ccc(Cl)cc1` (centres undefined): 1010 s.
As to `CSc1ccc(CNC(=O)C2CCN(c3nnc(-c4ccc(C)cc4)o3)CC2)cc1`, the RP-LC retention time worked out at 931 s.
The compound `CN(C)c1nc2cc(C(=O)NCC3CC3)sc2n1-c1ccccc1` registered an RP-LC retention time of 702 s.
The figure for `COc1cc2ncnc(Nc3ccc(NC(=O)c4ccccc4)cc3)c2cc1OC` is 687 s; for `CC(C)(C)n1nnnc1C1CC2(CCOCC2)C(=O)N1Cc1cccc(C(F)(F)F)c1` (centres undefined) it is 862 s; for `O=S(=O)(Cc1cccc(Cl)c1)NCC1CCN(Cc2ccco2)CC1` it is 573 s.
The figure for `Cc1ccc(NC(=O)N2CCN(CCn3cnc4cccnc43)CC2)c(C)c1` is 594 s; for `CCCn1cc(CCNS(=O)(=O)c2cccc(OC)c2)c2cccnc21` it is 837 s; for `CCC(C)n1c(=O)c2ccccc2n(Cc2nc(-c3cccc(C(F)(F)F)c3)no2)c1=O` (centres undefined) it is 1300 s.
The same measure for `CN1c2ccc(F)cc2C(=O)NC12CCN(C(=O)c1ccccc1Cl)CC2`: 751 s.
`CC(C)CN(CC1CCCO1)C(=O)CN1CC2=C(C1=O)C(c1ccccc1Cl)NC(=O)N2C` (centres undefined) came in with an RP-LC retention time of 999 s.
`CC(C)Oc1cccnc1N(C)C1CCN(Cc2ccccc2)CC1` yielded an RP-LC retention time of 627 s.
The same measure for `COc1ccc(C(=O)N2CCC3(C2)C(=O)Nc2ccc(OC)cc23)c(OC)c1` (centres undefined): 692 s.
The figure for `NC(=O)CSc1nnc(-c2ccncc2)o1` is 486 s; for `CCC(C(=O)N1CCOc2ccc(C)cc21)n1cnc2nc3c(cc2c1=O)CCCC3` (centres undefined) it is 950 s.
For `CN(C)c1cc(N2CCCC(NC(=O)Cc3cccs3)C2)ncn1` (centres undefined), the RP-LC retention time was 596 s.
As to `Cc1cccc(N2CCN(c3ccc4cc(S(=O)(=O)N5CCC(C)CC5)ccc4n3)CC2)c1C`, the RP-LC retention time worked out at 1460 s.
`CC(C)n1cnnc1CC1CN(C(=O)Nc2ccc(Cl)cc2C(F)(F)F)C1` displayed an RP-LC retention time of 693 s.
The figure for `CCN1C(=O)COc2ccc(-c3nc(NC(=O)c4ccccc4C)sc3C)cc21` is 1010 s; for `CCn1cc(-c2nc(CC(=O)Nc3ccc(F)cc3C)cs2)c2cccnc21` it is 902 s; for `O=C(C1=CN(c2ccc3c(c2)OCO3)c2ccccc2S1(=O)=O)N1CCOCC1` it is 717 s.
Compound `Cc1ccc(CC(=O)NC(C)C(=O)Nc2nc3ccccc3[nH]2)cc1` (centres undefined) came in with an RP-LC retention time of 665 s.
Consider `COCCn1c(C2CCN(S(=O)(=O)c3ccc(C)c(Cl)c3)C2)nc2ccncc21` (centres undefined), for which the RP-LC retention time came to 591 s.
Compound `O=C(C1CC1)N1CCC(c2noc(-c3ccccc3)n2)C1` (centres undefined) showed an RP-LC retention time of 956 s.
The compound `O=C(C1CCC1)N1CCCCCC1CN1CCOCC1` (centres undefined) displayed an RP-LC retention time of 595 s.
The figure for `Cc1cc(-c2c(C)sc(C)c2S(=O)(=O)N2CCN(c3cccc(Cl)c3)CC2)n[nH]1` is 1040 s.
The same measure for `COC(=O)c1cc(OCC(=O)Nc2cc(F)ccc2F)c2ccccc2n1`: 838 s; for `Cc1cccc(NC(=O)CN2CCN(Cc3nc4ccccc4[nH]3)CC2)c1C`: 541 s; for `CCc1ccccc1S(=O)(=O)NCC(c1cccnc1)c1c[nH]c2ccccc12` (centres undefined): 706 s.
For `CC(C)c1cc(C(F)(F)F)nc(NNc2nc(C(C)C)cc(C(F)(F)F)n2)n1`, the RP-LC retention time worked out at 924 s.
The same measure for `Cc1nc2ccn(Cc3cccnc3)c(=O)c2cc1C(=O)NCc1ccc2c(c1)OCO2`: 592 s; for `c1cncc(CN2CCC(n3ncc4c(N5CCOCC5)nc(-c5ccc6[nH]ccc6c5)nc43)CC2)c1`: 675 s; for `CCC(=O)Nc1ccc(C2(C(=O)O)CCC2)cc1`: 673 s.
With `CCOc1ccc2ccccc2c1C(=O)NCCc1ccsc1`, the RP-LC retention time was determined as 872 s.
As to `COC(=O)c1cccc(Nc2c(-c3ccc(C)cc3)nc3cnc(Br)cn23)c1`, the RP-LC retention time was 994 s.
The figure for `Cc1ccc(NC(=O)N2CCN(c3nc4cccnc4n(C)c3=O)CC2)cc1Cl` is 951 s; for `COc1ccc(C)cc1NC(=O)NCCc1cn(C)c2ncccc12` it is 676 s.
The same measure for `CC(C)n1c(=O)c2ccccc2n(Cc2nc(-c3cccc(Br)c3)no2)c1=O`: 1250 s; for `O=C(c1ccccn1)N1CCc2cc(-c3csc(C4CC4)n3)ccc21`: 975 s.
`CC1CCN(c2ncc(S(=O)(=O)c3ccc(C(C)C)cc3)c(N)n2)CC1` yielded an RP-LC retention time of 1240 s.
The figure for `CC1=C(c2ccc(F)cc2)S(=O)(=O)N=C1N1CCCN(C(=O)CC2CCCC2)CC1` is 883 s; for `CCc1ccccc1NS(=O)(=O)c1c(C)sc(C)c1-c1cc(C(F)(F)F)on1` it is 1240 s; for `Cc1c(C(=O)N2CCCC(C)C2)sc2ncn(CC(=O)N3CC(C)CC(C)C3)c(=O)c12` (centres undefined) it is 966 s.
With `COc1ccc(CN2CC(C(=O)N3CCCN(c4cc(=O)n(C)c(=O)n4C)CC3)CC2=O)cc1` (centres undefined), the RP-LC retention time amounted to 629 s.
The same measure for `Nc1nnc(CCS(=O)(=O)c2ccccc2)o1`: 565 s; for `Cc1ccc(C)c(NC(=O)Cn2c(N3CCCC3)nc(C)cc2=O)c1`: 656 s.
The compound `CCOC(=O)C1CCN(C(=O)C2CCN(S(=O)(=O)c3ccc(OCC)cc3)CC2)CC1` returned an RP-LC retention time of 878 s.
